Reference: patent publication US12331046B2, “CTPS1 inhibitors and uses thereof” (Nimbus Clotho, Inc., priority 2020, dated 2025)
“And” between values parts separate entries of the source, which are not always exact repeats. Equal values may be shown once. Where a name gives a salt, the structure may show the parent alone.

Each compound was assayed against human CTPS1 (Homo sapiens (Human), UniProt P17812) (assay: hCTPS1 biochemical assay (ADP-Glo)). Details: hCTPS1 25 nM, ATP 120 uM, UTP 160 uM, GTP 60 uM, L-Glutamine 100 uM, 25 degrees C.
Sequence of human CTPS1 (P17812 whole entry): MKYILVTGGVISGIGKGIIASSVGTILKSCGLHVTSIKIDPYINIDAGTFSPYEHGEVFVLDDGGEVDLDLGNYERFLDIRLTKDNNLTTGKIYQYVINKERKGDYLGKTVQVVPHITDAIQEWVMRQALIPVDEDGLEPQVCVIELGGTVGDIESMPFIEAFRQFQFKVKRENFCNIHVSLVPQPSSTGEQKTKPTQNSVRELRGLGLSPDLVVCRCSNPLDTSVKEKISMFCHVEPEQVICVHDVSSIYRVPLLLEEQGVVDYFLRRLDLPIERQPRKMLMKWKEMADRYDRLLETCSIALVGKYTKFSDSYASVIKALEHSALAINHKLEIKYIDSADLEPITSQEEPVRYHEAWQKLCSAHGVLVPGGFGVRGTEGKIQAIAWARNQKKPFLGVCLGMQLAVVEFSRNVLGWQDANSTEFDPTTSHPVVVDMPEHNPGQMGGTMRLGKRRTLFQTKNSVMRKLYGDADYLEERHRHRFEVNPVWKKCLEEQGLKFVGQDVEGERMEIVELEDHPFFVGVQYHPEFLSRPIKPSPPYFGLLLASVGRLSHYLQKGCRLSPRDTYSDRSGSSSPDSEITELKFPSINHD

Row | SMILES | IC50
1 | CCOc1cncc(-c2ccc(C(=O)NCc3nccc(NS(=O)(=O)C4CC4)c3OC)c(F)c2)n1 [I-257, N-[(4-cyclopropanesulfonamido-3-methoxypyridin-2-yl)methyl]-4-(6-ethoxypyrazin-2-yl)-2-fluorobenzamide] | < 100 nM
2 | O=C(NC1(c2csc(NS(=O)(=O)C3CC3)n2)CC1)c1ccc2cnccc2c1 [I-4, N-(1-(2-(cyclopropanesulfonamido)thiazol-4-yl)cyclopropyl)isoquinoline-6-carboxamide] | ≥ 1000 nM
3 | CCOc1cncc(-c2cnc(C(=O)NC(CCCN)c3cc(NS(=O)(=O)C4CC4)ccn3)s2)n1 (centres unmarked) [I-166, N-(4-amino-1-(4-(cyclopropanesulfonamido)pyridin-2-yl)butyl)-5-(6-ethoxypyrazin-2-yl)thiazole-2-carboxamide] | < 100 nM
4 | CCOc1cncc(-n2ccc(C(=O)NC3(c4cccc(NS(=O)(=O)C(F)F)c4)CC3)n2)n1 [I-282, N-[1-[3-(difluoromethanesulfonamido)phenyl]cyclopropyl]-1-(6-ethoxypyrazin-2-yl)pyrazole-3-carboxamide] | < 100 nM and ≥ 1000 nM
5 | CCOc1cncc(-c2ccc(C(=O)NCc3cc(NS(=O)(=O)C4CC4)cnn3)cc2)n1 [I-52, N-[(5-cyclopropanesulfonamidopyridazin-3-yl)methyl]-4-(6-ethoxypyrazin-2-yl) benzamide] | < 100 nM
6 | O=C(NC1(c2csc(NS(=O)(=O)C3CC3)n2)CC1)c1ccc2c[n+]([O-])ccc2c1 [I-11, 6-(1-(2-(cyclopropanesulfonamido)thiazol-4-yl)cyclopropylcarbamoyl)isoquinoline 2-oxide] | ≥ 1000 nM
7 | CCOc1cncc(-c2cnc(C(=O)NC(C)(CCOC)c3cc(NS(=O)(=O)C4CC4)ccn3)s2)n1 (centres unmarked) [I-178] | 100 to 1000 nM
8 | CCOc1cncc(-c2cnc(C(=O)N[C@H](CN3[C@H](C)COC[C@@H]3C)c3cc(NS(=O)(=O)C4CC4)ccn3)s2)n1 (single isomer, unassigned) [I-110] | < 100 nM
9 | CCOc1cncc(-c2cnc(C(=O)N[C@H](CN3CCNCC3)c3cc(NS(=O)(=O)C4CC4)ccn3)s2)n1 [I-205, (R)—N-(1-(4-(cyclopropanesulfonamido)pyridin-2-yl)-2-(piperazin-1-yl)ethyl)-5-(6-ethoxypyrazin-2-yl)thiazole-2-carboxamide] | < 100 nM
10 | O=C(NCc1cc(NS(=O)(=O)C2CC2)ccn1)c1ncc(-c2cncc(C(F)(F)F)n2)s1 [I-253] | < 100 nM
11 | CCOc1cncc(-c2cnc(C(=O)N[C@H](CCCN(C)C)c3cc(NS(=O)(=O)C4CC4)ccn3)s2)n1 [I-156, (R)—N-(1-(4-(cyclopropanesulfonamido)pyridin-2-yl)-4-(dimethylamino)butyl)-5-(6-ethoxypyrazin-2-yl)thiazole-2-carboxamide] | < 100 nM
12 | CCOc1cncc(-c2cnc(C(=O)N[C@@H](CN3[C@@H]4COC[C@H]3C4)c3cc(NS(=O)(=O)C4CC4)ccn3)s2)n1 [I-114] | < 100 nM
13 | CCOc1cncc(-c2cnc(C(=O)N[C@@H](c3cc(NS(=O)(=O)C4CC4)ccn3)[C@H]3C[C@H](N(C)C)C3)s2)n1 (single isomer, unassigned) [I-107, N-((4-(cyclopropanesulfonamido)pyridin-2-yl)((1r, 3r)-3-(dimethylamino)cyclobutyl)methyl)-5-(6-ethoxypyrazin-2-yl)thiazole-2-carboxamide] | < 100 nM
14 | CCOc1cncc(-c2cnc(C(=O)NC(CN3CCOCC3)c3cc(NS(=O)(=O)C4CC4)ccn3)s2)n1 (centres unmarked) [I-245] | < 100 nM
15 | CCOc1cncc(-c2cnc(C(=O)NC(CN3CCCCC3)c3cc(NS(=O)(=O)C4CC4)ccn3)s2)n1 (centres unmarked) [I-224] | < 100 nM
16 | CCOc1cncc(-c2ccc(C(=O)NCc3cc(NS(=O)(=O)CC(F)(F)F)ccn3)nc2)n1 [I-66, 5-(6-ethoxypyrazin-2-yl)-N-((4-((2,2,2-trifluoroethyl)sulfonamido)pyridin-2-yl)methyl)picolinamide] | < 100 nM
17 | CCOc1cncc(-n2cc(C(=O)NC3(c4cccc(NS(=O)(=O)C(F)F)c4)CC3)cn2)n1 [I-274, N-[1-[3-(difluoromethanesulfonamido)phenyl]cyclopropyl]-1-(6-ethoxypyrazin-2-yl)pyrazole-4-carboxamide] | < 100 nM
18 | CCOc1cncc(-c2cnc(C(=O)N[C@@H](CCN3CC[C@@H](F)C3)c3cc(NS(=O)(=O)C4CC4)ccn3)s2)n1 [I-128, N—((S)-1-(4-(cyclopropanesulfonamido)pyridin-2-yl)-3-((R)-3-fluoropyrrolidin-1-yl)propyl)-5-(6-ethoxypyrazin-2-yl)thiazole-2-carboxamide] | < 100 nM
19 | CCOc1cncc(-c2ccc(C(=O)N3CCC[C@@H]3c3cc(NS(=O)(=O)C4CC4)ccn3)nc2)n1 [I-80, N-[2-[(2R)-1-[5-(6-ethoxypyrazin-2-yl)pyridine-2-carbonyl]pyrrolidin-2-yl]pyridin-4-yl]cyclopropanesulfonamide] | ≥ 1000 nM
20 | CCOc1cncc(-c2cnc(C(=O)N[C@H](CN3CCC3)c3cc(NS(=O)(=O)C4CC4)ccn3)s2)n1 (single isomer, unassigned) [I-222] | < 100 nM
21 | CCOc1cncc(-c2cnc(C(=O)NC3(c4cc(NS(=O)(=O)C5CC5)ccn4)CCOCC3)s2)n1 [I-132] | < 100 nM
22 | CCOc1cncc(-c2cnc(C(=O)N3CCNC[C@H]3c3cc(NS(=O)(=O)C4CC4)ccn3)s2)n1 [I-211, (S)—N-(2-(1-(5-(6-ethoxypyrazin-2-yl)thiazole-2-carbonyl)piperazin-2-yl)pyridin-4-yl)cyclopropanesulfonamide] | 100 to 1000 nM
23 | CCOc1cncc(N2CCN(C(=O)NCc3cc(NS(=O)(=O)C4CC4)ccn3)CC2)n1 [I-27] | 100 to 1000 nM
24 | CCOc1cncc(-c2cnc(C(=O)N[C@@H](CN3CCOCC3)c3cccc(NS(=O)(=O)C(F)F)c3)s2)n1 [I-247, (R)—N-(1-(3-((difluoromethyl)sulfonamido)phenyl)-2-morpholinoethyl)-5-(6-ethoxypyrazin-2-yl)thiazole-2-carboxamide] | < 100 nM
25 | CCOc1cncc(-c2cnc(C(=O)N[C@@H](CN3CCN(C(C)C)CC3)c3cc(NS(=O)(=O)C4CC4)ccn3)s2)n1 (single isomer, unassigned) [I-118] | < 100 nM
26 | CCOc1cncc(-c2ccc(C(=O)NC3(c4cccc(NS(=O)(=O)C(F)F)c4)CC3)nc2)n1 [I-265, N-[1-[3-(difluoromethanesulfonamido)phenyl]cyclopropyl]-5-(6-ethoxypyrazin-2-yl)pyridine-2-carboxamide] | < 100 nM
27 | CCOc1cncc(-c2ccc(C(=O)NCc3cc(NS(=O)(=O)C4CC4)ncn3)cc2)n1 [I-29, N-((6-(cyclopropanesulfonamido)pyrimidin-4-yl)methyl)-4-(6-ethoxypyrazin-2-yl)benzamide] | < 100 nM
28 | CCOc1cncc(-c2ccc3c(c2)CN(Cc2cc(NS(=O)(=O)C4CC4)ccn2)C3=O)n1 [I-43, N-(2-((5-(6-ethoxypyrazin-2-yl)-1-oxoisoindolin-2-yl)methyl)pyridin-4-yl)cyclopropanesulfonamide] | 100 to 1000 nM

Other lines, results leading:

Row | IC50 | SMILES
29 | < 100 nM | CCOc1cncc(-c2cnc(C(=O)N[C@@H](C)c3cccc(NS(=O)(=O)C(F)F)c3)s2)n1 [I-273, N-[(1S)-1-[3-(difluoromethanesulfonamido)phenyl]ethyl]-5-(6-ethoxypyrazin-2-yl)-1,3-thiazole-2-carboxamide]
30 | < 100 nM | CCOc1cncc(-c2cnc(C(=O)NC(CCCN(C)C)c3cc(NS(=O)(=O)C4CC4)ccn3)s2)n1 (centres unmarked) [I-173, N-(1-(4-(cyclopropanesulfonamido)pyridin-2-yl)-4-(dimethylamino)butyl)-5-(6-ethoxypyrazin-2-yl)thiazole-2-carboxamide, formic acid salt]
31 | < 100 nM | CCOc1cncc(-c2cnc(C(=O)N[C@H](CCN3CCOCC3)c3cc(NS(=O)(=O)C4CC4)ccn3)s2)n1 [I-164, (R)—N-(1-(4-(cyclopropanesulfonamido)pyridin-2-yl)-3-morpholinopropyl)-5-(6-ethoxypyrazin-2-yl)thiazole-2-carboxamide]
32 | 100 to 1000 nM | CCOc1cncc(-c2cnc(C(=O)N3CCC[C@H]3c3cccc(NS(=O)(=O)C4CC4)n3)s2)n1 [I-231, N-[6-[(2S)-1-[5-(6-ethoxypyrazin-2-yl)-1,3-thiazole-2-carbonyl]pyrrolidin-2-yl]pyridin-2-yl]cyclopropanesulfonamide]
33 | < 100 nM | CCOc1cncc(-c2ccc(C(=O)NCc3cc(NS(=O)(=O)C4CC4)ccn3)nc2)n1 [I-16]
34 | 100 to 1000 nM | CCOc1cncc(-n2cnc(C(=O)NCc3cc(NS(=O)(=O)C4CC4)ccn3)c2)n1 [I-238]
35 | ≥ 1000 nM | O=C(NC1(c2csc(NS(=O)(=O)C3CC3)n2)CC1)c1ccc2ncccc2c1 [I-9, N-(1-(2-(cyclopropanesulfonamido)thiazol-4-yl)cyclopropyl)quinoline-6-carboxamide]
36 | 100 to 1000 nM | CCOc1cncc(-c2cnc(C(=O)N[C@H](CCN3CCCCC3)c3cc(NS(=O)(=O)C4CC4)ccn3)s2)n1 [I-160, (R)—N-(1-(4-(cyclopropanesulfonamido)pyridin-2-yl)-3-(piperidin-1-yl)propyl)-5-(6-ethoxypyrazin-2-yl)thiazole-2-carboxamide]
37 | ≥ 1000 nM | O=C(NC1(c2csc(NS(=O)(=O)C3CC3)n2)CC1)c1ccc2ccncc2c1 [I-7, N-(1-(2-(cyclopropanesulfonamido)thiazol-4-yl)cyclopropyl)isoquinoline-7-carboxamide]
38 | < 100 nM | CCOc1cncc(-c2cnc(C(=O)NC(CCN3CC[C@@H](F)C3)c3cc(NS(=O)(=O)C4CC4)ccn3)s2)n1 (stereo partly drawn) [I-131, N-(1-(4-(cyclopropanesulfonamido)pyridin-2-yl)-3-((R)-3-fluoropyrrolidin-1-yl)propyl)-5-(6-ethoxypyrazin-2-yl)thiazole-2-carboxamide]
39 | ≥ 1000 nM | CO[C@H]1CCN(c2cncc(-c3ccc(C(=O)NCc4cc(NS(=O)(=O)C5CC5)ccn4)cc3)n2)C1 (stereo in doubt) [I-45]
40 | < 100 nM | CCOc1cncc(-c2cnc(C(=O)N[C@H](C[C@H]3CCCCN3C)c3cc(NS(=O)(=O)C4CC4)ccn3)s2)n1 [I-145, N—((R)-1-(4-(cyclopropanesulfonamido)pyridin-2-yl)-2-((R)-1-methylpiperidin-2-yl)ethyl)-5-(6-ethoxypyrazin-2-yl)thiazole-2-carboxamide]
41 | ≥ 1000 nM | CCOc1cncc(-c2ncc(C(=O)NCc3cc(NS(=O)(=O)C4CC4)ccn3)o2)n1 [I-44]
